# Data from patent publication US9085559B2, “Triazine-aryl-bis-indoles and process for preparation thereof” (COUNCIL OF SCIENTIFIC & INDUSTRIAL RESEARCH, priority 2010, dated 2015).
# Values joined by “and” are separate entries in the source; they are usually repeats but may differ in a detail not shown here. Equal entries are not always repeated. Where two headings read alike, the source gives them in different places.
# How the values were obtained:
# [1] = Pharmacokinetic study, oral and i.v. route; type: in vivo, swiss mice; conditions: mice; for half-life: read-out: T ½ (converted)
# Experimental: FIG. 6. Pharmacokinetics of IICT-TA67 through oral route. FIG. 7. Pharmacokinetics of IICT-TA67 through intravenous (i.v) route in mice. IICT-TA67 (20 mg/kg) was administered orally (or 10 mg/kg by i.v. route) as a fine suspension in 1% Gum acacia. Blood samples were drawn from retro-orbital plexus at designated times in pre-labeled heparinised tubes and centrifuged (3500 rpm×10 minutes) to obtain the plasma. Blood samples were collected at 0, 5, 15 and 30 min, and 1, 2, 4, 6, 8, 16 and 24 hrs post-administration after oral/iv route. HPLC determinations were done on Shimadzu chromatograph (Model: LC-10 Atvp equipped with a diode array detector). The Molecule ICT-TA67 was determined at 276 nm using RP-18 column (5 μm×25 cm). Mobile phase consisted of acetonitrile: water (55:45) with a flow rate of 1.0 ml/min.
# Animals. Healthy swiss mice of both the sexes (25-30) were used. The animals were kept (3/cage) under controlled conditions (temp 26±2° C.; relative humidity 50±5%; 12 h light/dark cycle) and maintained on pelleted rodent diet (Ashirwad Industries Ltd. Chandigarh, India). Water was provided ad libitum. Institutional Animal Ethics committee approved the animal experiments. Animals were fasted for 16 hours before use.
# Step 1: Dosing: IICT-TA67 (20 mg/kg) was administered orally (or 10 mg/kg by i.v.route) as a fine suspension in 1% Gum acacia. Blood samples were drawn from retro-orbital plexus at designated times in pre-labeled heparinised tubes and centrifuged (3500 rpm×10 minutes) to obtain the plasma. Blood samples were collected at 0, 5, 15 and 30 min, and 1, 2, 4, 6, 8, 16 and 24 hrs post-administration after oral/iv route.
# Step 2: HPLC determinations: Aliquots of plasma were mixed with acetonitrile (1:2), vortexed for two minutes (2500 rpm) and centrifuge at 5000 rpm for 10 min. The organic layer was collected and evaporated to dryness using solvent evaporator (Model: SPD 111V, Thermo Electron Corporation, MA). The dried samples were reconstituted in mobile phase for HPLC analysis. In a similar manner samples were also prepared from aliquots of plasma collected from untreated animals which were spiked with molecule 67 (0.25 μg-10 μg/ml). […] Reproducibility of the method was defined by both intra-, and inter-day variance. The retention time of Mol. 67 was 10.688 min, at which no other interfering peak was observed. The lower limit of detection (LOD) was 11 ng/ml; limit of quantitation (LOQ) was 32 ng/ml; recovery was 90±2%.
# HPLC determinations were done on Shimadzu chromatograph (Model: LC-10 Atvp equipped with a diode array detector). Molecule 67 was determined at 276 nm using RP-18 column (5 μm×25 cm). Mobile phase consisted of acetonitrile: water (55:45) with a flow rate of 1.0 ml/min.
# Step 3: Calculating Bioavailability indices: A concentration-time curve for Molecule 67 was established and pharmacokinetic parameters AUC, Cmax, and tmax were determined by a non-compartmental analysis using TOPFIT software package. Absolute bioavailability was determined using the following formula: AUCoral×doseiv/AUCiv×Doseoral.
# PDE-4 = assay: Phosphodiesterase 4 assay ([3H]cAMP SPA), enzyme preparation from rat heart; type: biochemical; conditions: PDE-4 activity, dose 10 μg/ml
# Experimental: FIG. 2. […] To examine whether IICT-TA67 inhibits PDE-4 activity in vitro, enzyme preparations were incubated in the absence or presence of different concentrations (1-20 μg/ml) of IICT-TA67 and breakdown of cAMP was monitored by β counter.
# Table 1. Measurement of phosphodiesterase (PDE)-4 activity by compounds.
# Heart was excised from anesthetized rat and transfer into normal saline solution. […] The homogenate was centrifuged at 500×g for 5 minute at 4° C. Then sup was taken for further centrifuged at 40,000×g for 30 minute (ultra centrifugation). After centrifugation supernatant was collected for phosphodiesterase assay. Protein concentration was estimated and for each assay, 2.5 μg protein (PDE enzyme preparation) was used.
# Phosphodiesterase 4 assay: Phosphodiesterase 4 assay was conducted with [^3H] cAMP SPA enzyme assay (GE Amersham, UK) using 2.5 μg enzyme preparation for each well. Into each well 60 μl water, 10 μl assay buffer supplied with the kit, 10 μl compound (inhibitor), 10 μl PDE enzyme or homogenizing buffer (blank) and 10 μl radiolabel led cAMP ([^3H]cAMP, GE Amersham, UK) were added. To check activity of the enzyme without inhibitor 10 μl DMSO was added in place of inhibitor to a separate well. The reaction mixtures were incubated for 30 mi at 30° C. The reaction was stopped by adding 50 μl SPA bead supplied with the kit. It was then mixed well and allowed to stand at room temperature for 20 min. Breakdown of cAMP in each tube was monitored by β counter. The reading in each tube was obtained in counts per minute (CPM). The reading of the blank tube (without enzyme) was subtracted from each tube to normalize the counts. The enzyme activity was calculated by considering the CPM reading without any inhibitor (compound) as 100.
# [2] = both sexes, Swiss, mouse, plasma, iv, 10 mg/kg
# [3] = both sexes, Swiss, mouse, plasma, oral, 20 mg/kg
smiles,measurement,setting,value
"COc1ccc(C(c2[nH]c3ccccc3c2CC(=O)O)c2[nH]c3ccccc3c2CC(=O)O)cc1Oc1nc(NC2CC2)nc(NC2CC2)n1 [Compound 7, 2,2′-[2,2′-3-(4,6-bis-cyclopropylamino)-1,3,5-triazin-2-yl-oxy-4-methoxy-phenyl]-methylene-bis-(1H-indole-3,3-diyl)-diacetic acid]",Tmax,[1]; [2],0.167 h
same,half-life,"[1]; both sexes, Swiss, mouse, plasma, iv, 10 mg/kg, i.v., 10 mg/kg",0.93 h
same,AUC,[1]; [2],358 ng·h/mL
same,Cmax,[1]; [2],332 ng/mL
same,clearance,[1]; [2],466 mL/min and 466 mL/min/kg
same,AUC(0-t),"[1]; both sexes, Swiss, mouse, plasma, iv, 10 mg/kg (Table 2)",358 ng·h/mL
same,Vd,"[1]; both sexes, Swiss, mouse, plasma, iv, i.v., 10 mg/kg, read-out: Vd",37.5 L and 37.5 L/kg
same,bioavailability,"[1]; both sexes, Swiss, mouse, plasma, oral, AUCoral×doseiv/AUCiv×Doseoral, read-out: Absolute bioavailability (F)",70.3%
same,Tmax,"[1]; both sexes, Swiss, mouse, plasma, po, 20 mg/kg",3 h
same,Tmax,"[1]; both sexes, Swiss, mouse, plasma, po, 20 mg/kg, 20 mg/kg (Table 2)",2 h
same,half-life,"[1]; both sexes, Swiss, mouse, plasma, po, 20 mg/kg, oral, 20 mg/kg",4.26 h
same,AUC,[1]; [3],503 ng·h/mL
same,Cmax,[1]; [3],107 ng/mL
same,AUC(0-t),"[1]; both sexes, Swiss, mouse, plasma, oral, 20 mg/kg (Table 2)",503 ng·h/mL
same,T ½,"[1]; i.v., 10 mg/kg, listed as IICT-TA67, 10 mg/kg",1.5 h
same,Vd,"[1]; oral, 20 mg/kg, listed as TA-67, 20 mg/kg",474 L
same,Inhibition %,PDE-4,60%
